Structures can show the parent of a compound that is named as a salt. Where two headings read alike, the source gives them in different places.
What was measured:
[1] = molecular target: T1, BRD4 BD1 (Homo sapiens, UniProt O60885, Y390A); assay: TR-FRET binding assay, BRD4 BD1 (mutant protein); conditions: 10 nM mutated bromodomain protein, Alexa Fluor647 ligand at Kd, read-out: mean pIC50 in the BRD4 BD1 assay (converted)
T1 construct: BRD4 (1-477) (Y97A) and (Y390A); made in house; host or cells: E. coli (pET15b vector)
Method: (§1) Biological Data Time Resolved Fluorescence Resonance Energy Transfer (TR-FRET) Assay
(§2) Binding was assessed using a time resolved fluorescent resonance energy transfer binding assay. This utilises a 6 His purification tag at the N-terminal of the proteins as an epitope for an anti-6 His antibody labeled with Europium chelate (PerkinElmer AD0111) allowing binding of the Europium to the proteins which acts as the donor fluorophore.
(§3) In the absence of a competing compound, excitation of the Europium causes the donor to emit at λ618 nm which excites the Alexa labelled bromodomain binding compound leading to an increased energy transfer that is measurable at λ647 nM. In the presence of a sufficient concentration of a compound that can bind these proteins, the interaction is disrupted leading to a quantifiable drop in fluorescent resonance energy transfer.
The binding of compounds of the invention to Bromodomains BRD2, BRD3, BRD4 and BRDT was assessed using mutated proteins to detect differential binding to either Binding Domain 1 (BD1) or Binding Domain 2 (BD2) on the bromodomain. […] Therefore in the final assay conditions, binding of the fluoroligand to the mutated domain cannot be detected and subsequently the assay is suitable to determine the binding of compounds to the single non-mutated bromodomain. […]
All assay components were dissolved in buffer composition of 50 mM HEPES pH7.4, 50 mM NaCl, 5% Glycerol, 1 mM DTT and 1 mM CHAPS. […] Plates were then read on the Envision plate reader, (⋅ex=317 nm, donor ⋅em=615 nm; acceptor ⋅em=665 nm; Dichroic LANCE dual). Time resolved fluorescent intensity measurements were made at both emission wavelengths and the ratio of acceptor/donor was calculated and used for data analysis. […]

[2] = molecular target: T2, BRD4 BD2 (Homo sapiens, UniProt O60885, Y97A); assay: TR-FRET binding assay, BRD4 BD2 (mutant protein); conditions: 10 nM mutated bromodomain protein, Alexa Fluor647 ligand at Kd, read-out: mean pIC50 in the BRD4 BD2 assay (converted)
T2 construct: BRD4 (1-477) (Y97A) and (Y390A); made in house; host or cells: E. coli (pET15b vector)
Method: as §1, §2, §3
The binding of compounds of the invention to Bromodomains BRD2, BRD3, BRD4 and BRDT was assessed using mutated proteins to detect differential binding to either Binding Domain 1 (BD1) or Binding Domain 2 (BD2) on the bromodomain. […] Therefore in the final assay conditions, binding of the fluoroligand to the mutated domain cannot be detected and subsequently the assay is suitable to determine the binding of compounds to the single non-mutated bromodomain.
Recombinant Human Bromodomains [(BRD2 (1-473) (Y113A) and (Y386A), BRD3 (1-435) (Y73A) and (Y348A) BRD4 (1-477) (Y97A) and (Y390A) and BRDT (1-397) (Y66A) and (Y309A)] were expressed in E coli cells (in pET15b vector for BRD2/3/4 and in pET28a vector for BRDT) with a 6-His tag at the N-terminal. The His-tagged Bromodomain pellet was resuspended in 50 mM HEPES (pH7.5), 300 mM NaCl, 10 mM imidazole & 1 μl/ml protease inhibitor cocktail and extracted from the E coli cells using sonication and purified using a nickel sepharose high performance column, the proteins were washed and then eluted with a linear gradient of 0-500 mM imidazole with buffer 50 mM HEPES (pH7.5), 150 mM NaCl, 500 mM imidazole, over 20 column volumes. Final purification was completed by Superdex 200 prep grade size exclusion column. Purified protein was stored at −80° C. in 20 mM HEPES pH 7.5 and 100 mM NaCl.
All assay components were dissolved in buffer composition of 50 mM HEPES pH7.4, 50 mM NaCl, 5% Glycerol, 1 mM DTT and 1 mM CHAPS. The final concentration of bromodomain proteins were 10 nM and the Alexa Fluor647 ligand was at Kd. These components were premixed and 5 μl of this reaction mixture was added to all wells containing 50 nl of various concentrations of test compound or DMSO vehicle (0.5% DMSO final) in Greiner 384 well black low volume microtitre plates and incubated in dark for 30 minutes at rt. […] of detection mixture containing 1.5 nM final concentration anti-6His Europium chelate was added to all wells and a further dark incubation of at least 30 minutes was performed. Plates were then read on the Envision plate reader, (⋅ex=317 nm, donor ⋅em=615 nm; acceptor ⋅em=665 nm; Dichroic LANCE dual). Time resolved fluorescent intensity measurements were made at both emission wavelengths and the ratio of acceptor/donor was calculated and used for data analysis. All data was normalized to the mean of 16 high (inhibitor control—Example 11 of WO 2011/054846A1) and 16 low (DMSO) control wells on each plate. A four parameter curve fit of the following form was then applied: y=a+((b−a)/(1+(10^x/10^c)^d) Where ‘a’ is the minimum, […], ‘c’ is the pIC50 and […].

[3] = system: LPS induced MCP-1 production; assay: LPS induced MCP-1 production from human whole blood; type: cell-based; conditions: LPS 200 ng/mL, 18-24 hours; for IC50: read-out: mean pIC50, LPS induced MCP-1 production (converted)
Description: Measurement of LPS Induced MCP-1 Production from Human Whole Blood
Activation of monocytic cells by agonists of toll-like receptors such as bacterial lipopolysaccharide (LPS) results in production of key inflammatory mediators including MCP-1. Such pathways are widely considered to be central to the pathophysiology of a range of auto-immune and inflammatory disorders. Blood is collected in a tube containing Sodium heparin (Leo Pharmaceuticals) (10 units of heparin/mL of blood). 96-well compound plates containing 1 μL test sample in 100% DMSO were prepared (two replicates on account of donor variability). 130 μL of whole blood was dispensed into each well of the 96-well compound plates and incubated for 30 min at 37° C., 5% CO2. 10 μL of lipopolysaccharide (from Salmonella typhosa; L6386) made up in PBS (200 ng/mL final assay concentration) was added to each well of the compound plates. The plates were then placed in the humidified primary cell incubator for 18-24 hours at 37° C., 5% CO2. 140 μL of PBS was added to all wells of the compound plates containing blood. The plates were then sealed and centrifuged for 10 mins at 2500 rpm. 25 μL of cell supernatant was placed in a 96-well MSD plate pre-coated with human MCP-1 capture antibody. The plates were sealed and placed on a shaker at 600 rpm for 1 hour (r.t). 25 μL of Anti-human MCP-1 antibody labelled with MSD SULFO-TAG™ reagent is added to each well of the MSD plate (stock 50× was diluted 1:50 with Diluent 100, final assay concentration is 1 μg/mL). The plates were then re-sealed and shaken for another hour before washing with PBS. 150 μL of 2×MSD Read Buffer T (stock 4×MSD Read Buffer T was diluted 50:50 with de-ionised water) was then added to each well and the plates read on the MSD Sector Imager 6000. Concentration response curves for each compound were generated from the data and an pIC50 value was calculated.

Row | IC50 [1] | IC50 [2] | IC50 [3] | IC50 ([3]; Homo sapiens) | mean pIC50, LPS induced MCP-1 production [3] | SMILES
1 | 200 nM | 1260 nM | 1000 nM | – | – | COCC(COC)n1c(-c2cc(C)c(=O)n(C)c2)nc2cc(CN[C@H](C(=O)O)[C@@H](C)O)ccc21 [Example 66, (2S,3R)-2-(((1-(1,3-dimethoxypropan-2-yl)-2-(1,5-dimethyl-6-oxo-1,6-dihydropyridin-3-yl)-1H-benzo[d]imidazol-5-yl)methyl)amino)-3-hydroxybutanoic acid hydrochloride]
2 | 251 nM | 631 nM | 3980 nM | – | – | Cc1cc(-c2nc3cc(CN[C@H](C(=O)O)[C@@H](C)O)ccc3n2CC2CCOCC2)cn(C)c1=O [Example 68, (2S,3R)-2-(((2-(1,5-dimethyl-6-oxo-1,6-dihydropyridin-3-yl)-1-((tetrahydro-2H-pyran-4-yl)methyl)-1H-benzo[d]imidazol-5-yl)methyl)amino)-3-hydroxybutanoic acid hydrochloride]
3 | – | – | – | 25.1 nM | – | Cc1cc(-c2nc3cc(CN[C@H](C(=O)OC(C)C)[C@@H](C)O)ccc3n2CC2CCOCC2)cn(C)c1=O [Example 303, (2S,3R)-isopropyl 2-(((2-(1,5-dimethyl-6-oxo-1,6-dihydropyridin-3-yl)-1-((tetrahydro-2H-pyran-4-yl)methyl)-1H-benzo[d]imidazol-5-yl)methyl)amino)-3-hydroxybutanoate]
4 | 50.1 nM | 398 nM | 10 nM | – | – | COCC(COC)n1c(-c2cc(C)c(=O)n(C)c2)nc2cc(CN[C@H](C(=O)OC(C)C)[C@@H](C)O)ccc21 [Example 305, (2S,3R)-Isopropyl 2-(((1-(1,3-dimethoxypropan-2-yl)-2-(1,5-dimethyl-6-oxo-1,6-dihydropyridin-3-yl)-1H-benzo[d]imidazole-5-yl)methyl)amino)-3-hydroxybutanoate]
5 | – | – | – | – | 7.5 | Cc1cc(-c2nc3cc(CN[C@H](C(=O)OC(C)C)[C@@H](C)O)ccc3n2CC2CCOCC2)cn(C)c1=O [edisylate salt of Example 303, 1,2-ethanedisulphonic acid salt of (2S,3R)-isopropyl 2-(((2-(1,5-dimethyl-6-oxo-1,6-dihydropyridin-3-yl)-1-((tetrahydro-2H-pyran-4-yl)methyl)-1H-benzo[d]imidazol-5-yl)methyl)amino)-3-hydroxybutanoate]
